{"source": "patent US9855320B2", "about": "“Angiogenin for treatment of glaucoma” (CHUNG-ANG UNIVERSITY INDUSTRY-ACADEMIC COOPERATION …, priority 2011, dated 2018)", "key": {"normal white rat": {"tested_on": "normal white rat", "assay": "Intraocular pressure change due to instillation in normal white rats (day-time and night-time)", "format": "in vivo", "method": "(§1) White rats were grouped as a physiological saline solution instillation group, an angiogenin (recombinant human angiogenin, R&D systems, USA) 50 μg/ml instillation group, an angiogenin fragment (angiogenin 108-122, SEQ ID NO: 1, BACHEM, USA) instillation group, and a latanoprost 50 μg/ml instillation group, and each group consisted of 6 rats, that is, 12 eyes. Instillation test was repeatedly performed on normal rats and glaucoma model rats. Ophthalmic agent was administered at 8 AM and 8 PM in an amount of 4 μl to compare day-time effects and night-time effects, and 1, 3, 6, 9, 12, and 24 hours after the instillation, intraocular pressure was measured."}, "glaucoma white rats": {"tested_on": "glaucoma white rats", "assay": "Intraocular pressure change due to instillation in glaucoma white rats (day-time and night-time)", "format": "in vivo, rat", "conditions": "day-time test and night-time test", "method": "Male white rats were used to prepare an episcleral venous ablation glaucoma model. The rat was anesthetized and a limbus periphery was divided into four portions, each of which was then subjected to 2 mm dissection at an interval of 90 degrees, and then, two radial conjunctival excisions were performed on upper dissection periphery. […] Episcleral vein is distinguishable because it is located […] than extra ocular muscle, has relatively low fluidity and a relatively large diameter, contains darker blood in vessel, and is connected to peripheral venous plexus. After surgical isolation of vein, the vein was lifted up by using 3 mm-width wooden spatula to be spaced apart from the peripheral tissue, and then, was subjected to electric ablation while being careful for the peripheral tissue not to have any thermal injury or any mechanical injury due to the contact. After the operation, a chloramphenical ophthalmic agent was administered thereto. Intraocular pressure was consecutively measured three or more times by using Tonopen (Solan, Fla., USA), and only reliable intraocular pressure values within 5% or less were recorded. Only used were rats that had higher intraocular pressure than that before the operation by 5 mmHg or more when measured on the first day, the third day, one week and two weeks before and after operation.\nAlso, steroid-induced glaucoma model was prepared as follows: 1% prednisolone was instilled twice a day in an amount of 4 μl for 30 days, and only rats that had higher intraocular pressure by 5 mmHg or more before operation were used.\nas §1"}, "[1]": {"tested_on": "nitric oxide (NO) concentration in aqueous humor", "assay": "NO concentration in aqueous humor after instillation (Griess assay)", "format": "in vivo, rat", "conditions": "50 μg/ml, rank among instillation groups", "method": "Normal rat models were divided into 4 groups, each group consisting of 6 rats, that is, 12 eyes, and at 8 AM and 8 PM, each group was instilled with angiogenin 50 μg/ml, angiogenin fragment 50 μg/ml, and latanoprost 50 μg/ml, and 1, 3, and 6 hours after instillation, 15 to 20 μl of aqueous humor was extracted from two rats, that is, 4 eyes for each group. For the extraction of aqueous humor, first, rats were anesthetized, and then, corneal dissection was performed in a direction from at 9 o'clock outside each eye toward microkeratome, and then, a capillary tube was brought into contact through a dissection wound to absorb aqueous humor, which was then moved to an eppendroff tube and frozen-preserved at a temperature of −70 degrees. Thereafter, nitric oxide (NO) concentration in aqueous humor was measured by Griess assay (nitric oxide colorimetric assay kit, Biovision, USA). The aqueous humor was diluted 10 times and then mixed with the same amount of griess solution and reacted together for 10 minutes. The reaction product was moved onto a well plate and then, absorbance of nitrate, which is a NO formation reactant, was measured by using spectrophotometer at a wavelength of 540 nm and compared with a reference value to quantify the nitrate."}, "angiogenin": {"tested_on": "angiogenin", "assay": "Angiogenin concentration change in human tear after Latanoprost instillation (ELISA array)", "format": "in vivo", "method": "Angiogenin concentration change in tears due to long-, short-term instillation of […] Latanoprost (Xalatan; Pfizer Inc., New York, N.Y., USA) was assayed by using ELISA kit (Custom Cytokine Human Antibody Array, RayBiotech). Short-term tear component change assay was performed as follows: 12 people, that is, 24 eyes were instilled with […] Latanoprost and then, angiogenin concentration in tear was qualitatively assayed before instillation and 6 hours after instillation. Long-term tear component change assay was performed as follows: 10 people, that is, 20 eyes, who were newly diagnosed with glaucoma were instilled with […] Latanoprost instillation for two months once a day, and then, angiogenin concentration in tear was analyzed before and after instillation. […] After washing, the result was reacted in a detection buffer solution provided by the manufacturer for 2 minutes, and then, the membrane was exposed to an X-ray film for 40 seconds, and an image thereof was obtained by using Quantity one software(Bio-Rad Lab., Hercules, Calif., USA), and chemiluminescent assay was performed thereon for qualitativeness."}}, "data": [{"compound": "angiogenin fragment: C-terminal fragment of angiogenin, angiogenin 108-122, SEQ ID NO: 1 (BACHEM) (ENGLPVHLDQSIFRR; listed as Homo sapiens)", "values": [{"measurement": "time after instillation up to which significant intraocular pressure reduction was maintained", "setting": "normal white rat; day-time instillation", "value": "up to 6 hours"}, {"measurement": "average intraocular pressure reduction", "setting": "normal white rat; day-time instillation, one hour after instillation", "value": "−2.9±0.4", "unit": "mmHg"}, {"measurement": "time after instillation up to which significant intraocular pressure reduction was maintained", "setting": "normal white rat; night-time instillation", "value": "up to 12 hours"}, {"measurement": "intraocular pressure reduction", "setting": "normal white rat; night-time instillation, 1 hour after the instillation", "value": "−3.4±0.6", "unit": "mmHg"}, {"measurement": "course of intraocular pressure reduction effects after the first hour (in words)", "setting": "glaucoma white rats; later than one hour after instillation", "value": "rapidly diminished at the highest speed from among all of the groups"}, {"measurement": "intraocular pressure reduction effects (in words)", "setting": "glaucoma white rats; one hour after instillation", "value": "excellent intraocular pressure reduction effects"}, {"measurement": "NO concentration increase in aqueous humor", "setting": "[1]; 1 hour after the initial instillation, day-time and night-time test", "value": "ranked the second"}]}, {"compound": "CC(C)OC(=O)CCC/C=C\\C[C@@H]1[C@@H](CC[C@@H](O)CCc2ccccc2)[C@H](O)C[C@@H]1O", "note": "[latanoprost, reference compound]", "values": [{"measurement": "time after instillation up to which significant intraocular pressure reduction was maintained", "setting": "normal white rat; day-time instillation", "value": "up to 12 hours"}, {"measurement": "intraocular pressure reduction", "setting": "normal white rat; day-time instillation, 50 μg/ml, 3 hours after the instillation", "value": "−2.8±0.4", "unit": "mmHg"}, {"measurement": "NO concentration increase in aqueous humor", "setting": "[1]; 3 hours after instillation", "value": "greatest NO concentration increase"}, {"measurement": "expression of angiogenin in tear", "setting": "angiogenin; human, short-term, 6 hours after instillation of 0.0005% Latanoprost, before instillation 42.2±9.1%", "value": "62.5±10.2", "unit": "%"}, {"measurement": "long-term angiogenin concentration in tear", "setting": "angiogenin; newly diagnosed glaucoma patients, after two months of instillation once a day, 0.0005% Latanoprost, before instillation 60.5±10.8%", "value": "81.2±11.5", "unit": "%"}]}]}
